Data as given in ChEMBL document CHEMBL1201862, “PubChem BioAssay data set” (2004).
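Exposure lasted 48 hours, with cells grown in 96-well plates and compounds tested at five concentrations. Here, GI50 denotes the concentration required for 50% inhibition of growth.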 Calls of active or inactive are those of the source. No stated cut-off is given here; in the data, active = GI50 up to about 1.1 µM and inactive = higher.

Legend:
Experiment in all cases: NCI-60 cell line screen, 48 h
COLO 205 = test system: COLO 205
SNB-78 = test system: SNB-78
HCT-15 = test system: HCT-15
Malme-3M = test system: Malme-3M
UACC-62 = test system: UACC-62
DMS-114 = test system: DMS-114
HOP-92 = test system: HOP-92
SK-MEL-2 = test system: SK-MEL-2
SNB-75 = test system: SNB-75
OVCAR-8 = test system: OVCAR-8
RPMI-8226 = test system: RPMI-8226
NCI-H522 = test system: NCI-H522
EKVX = test system: EKVX
HCT-116 = test system: HCT-116
SR = test system: SR
786-0 = test system: 786-0
NCI-H23 = test system: NCI-H23
DMS-273 = test system: DMS-273
U-251 = test system: U-251
CAKI-1 = test system: CAKI-1
M14 = test system: M14
HT-29 = test system: HT-29
HCC 2998 = test system: HCC 2998
LOX IMVI = test system: LOX IMVI
DLD-1 = test system: DLD-1
SNB-19 = test system: SNB-19
SW-620 = test system: SW-620
XF498 = test system: XF498
TK-10 = test system: TK-10
OVCAR-5 = test system: OVCAR-5
SF-295 = test system: SF-295
CCRF-CEM = test system: CCRF-CEM
HOP-62 = test system: HOP-62
SK-MEL-5 = test system: SK-MEL-5
RXF 393 = test system: RXF 393
UACC-257 = test system: UACC-257
SF-539 = test system: SF-539
HOP-18 = test system: HOP-18
SK-OV-3 = test system: SK-OV-3
LXFL 529 = test system: LXFL 529
SK-MEL-28 = test system: SK-MEL-28
KM12 = test system: KM12
OVCAR-4 = test system: OVCAR-4
MOLT-4 = test system: MOLT-4
M19-MEL = test system: M19-MEL
NCI-H226 = test system: NCI-H226
K562 = test system: K562
KM-20L2 = test system: KM-20L2
OVCAR-3 = test system: OVCAR-3
SN12C = test system: SN12C
NCI-H460 = test system: NCI-H460
A549 = test system: A549
SF-268 = test system: SF-268
UO-31 = test system: UO-31
IGROV-1 = test system: IGROV-1
HL-60 = test system: HL-60
A498 = test system: A498
ACHN = test system: ACHN

O=C(/C(=C\c1ccccc1)CN1CCOCC1)c1ccc(Br)cc1
GI50 (COLO 205): 3.25 µM (inactive)
GI50 (SNB-78): 5.61 µM (inactive)
GI50 (HCT-15): 1.93 µM
GI50 (Malme-3M): 1.78 µM (inactive)
GI50 (UACC-62): 1.55 µM (inactive)
GI50 (DMS-114): 1.78 µM (inactive)
GI50 (HOP-92): 5.47 µM (inactive)
GI50 (SK-MEL-2): 1.92 µM (inactive)
GI50 (SNB-75): 10.8 µM (inactive)
GI50 (OVCAR-8): 1.61 µM (inactive)
GI50 (RPMI-8226): 2.43 µM (inactive)
GI50 (NCI-H522): 1.28 µM (inactive)
GI50 (EKVX): 3.06 µM (inactive)
GI50 (HCT-116): 1.72 µM (inactive)
GI50 (SR): 1.16 µM (inactive)
GI50 (786-0): 1.57 µM (inactive)
GI50 (NCI-H23): 3.24 µM (inactive)
GI50 (DMS-273): 2.88 µM (inactive)
GI50 (U-251): 2.51 µM (inactive)
GI50 (CAKI-1): 1.88 µM (inactive)
GI50 (M14): 1.78 µM (inactive)
GI50 (HT-29): 2.05 µM (inactive)
GI50 (HCC 2998): 16 µM (inactive)
GI50 (LOX IMVI): 1.65 µM (inactive)
GI50 (DLD-1): 1.51 µM (inactive)
GI50 (SNB-19): 5.79 µM (inactive)
GI50 (SW-620): 1.18 µM (inactive)
GI50 (XF498): 4.89 µM (inactive)
GI50 (TK-10): 5.37 µM (inactive)
GI50 (OVCAR-5): 3.48 µM (inactive)
GI50 (SF-295): 5.97 µM (inactive)
GI50 (CCRF-CEM): 0.714 µM (active)
GI50 (HOP-62): 6.27 µM (inactive)
GI50 (SK-MEL-5): 1.91 µM (inactive)
GI50 (RXF 393): 2.51 µM (inactive)
GI50 (UACC-257): 2.59 µM (inactive)
GI50 (SF-539): 2.12 µM (inactive)
GI50 (HOP-18): 1.81 µM (inactive)
GI50 (SK-OV-3): 3.61 µM (inactive)
GI50 (LXFL 529): 1.28 µM (inactive)
GI50 (SK-MEL-28): 1.76 µM (inactive)
GI50 (KM12): 1.87 µM (inactive)
GI50 (OVCAR-4): 2.77 µM (inactive)
GI50 (MOLT-4): 2.33 µM (inactive)
GI50 (M19-MEL): 1.73 µM (inactive)
GI50 (NCI-H226): 6.68 µM (inactive)
GI50 (K562): 1.15 µM (inactive)
GI50 (KM-20L2): 2.65 µM (inactive)
GI50 (OVCAR-3): 2.44 µM (inactive)
GI50 (SN12C): 2.06 µM (inactive)
GI50 (NCI-H460): 3.01 µM (inactive)
GI50 (A549): 6.64 µM (inactive)
GI50 (SF-268): 3.63 µM (inactive)
GI50 (UO-31): 1.8 µM (inactive)
GI50 (IGROV-1): 4.97 µM (inactive)
GI50 (HL-60): 1.5 µM (inactive)
GI50 (A498): 6.12 µM (inactive)
GI50 (ACHN): 1.75 µM (inactive)
